Activity calls are given as the source filed them. The calls are words filed in the database; no cut-off is given here.
Legend:
[1] = system: A549; assay: Antiproliferative activity against human A549 cells incubated for 48 hrs in presence of 4-azido-N-(2-(2,6-dioxopiperidin-3-yl)-1,3-dioxoisoindolin-4-yl)butanamide by MTT assay; assay type: functional, cell-based; conditions: A549, 48 h
[2] = system: HEK293; assay: Cytotoxicity against HEK293 cells at low concentration incubated for 48 hrs in presence of 4-azido-N-(2-(2,6-dioxopiperidin-3-yl)-1,3-dioxoisoindolin-4-yl)butanamide by MTT assay; assay type: toxicity, cell-based; conditions: human, hek293, 48 h
[3] = molecular target: Platelet-derived growth factor receptor beta (Homo sapiens) (UniProt P09619); assay: Induction of PDGFR-beta degradation in human U87 cells upto 10 uM incubated for 48 hrs by Western blot analysis; assay type: cell-based
Sequence of Platelet-derived growth factor receptor beta (Homo sapiens) (P09619 whole entry): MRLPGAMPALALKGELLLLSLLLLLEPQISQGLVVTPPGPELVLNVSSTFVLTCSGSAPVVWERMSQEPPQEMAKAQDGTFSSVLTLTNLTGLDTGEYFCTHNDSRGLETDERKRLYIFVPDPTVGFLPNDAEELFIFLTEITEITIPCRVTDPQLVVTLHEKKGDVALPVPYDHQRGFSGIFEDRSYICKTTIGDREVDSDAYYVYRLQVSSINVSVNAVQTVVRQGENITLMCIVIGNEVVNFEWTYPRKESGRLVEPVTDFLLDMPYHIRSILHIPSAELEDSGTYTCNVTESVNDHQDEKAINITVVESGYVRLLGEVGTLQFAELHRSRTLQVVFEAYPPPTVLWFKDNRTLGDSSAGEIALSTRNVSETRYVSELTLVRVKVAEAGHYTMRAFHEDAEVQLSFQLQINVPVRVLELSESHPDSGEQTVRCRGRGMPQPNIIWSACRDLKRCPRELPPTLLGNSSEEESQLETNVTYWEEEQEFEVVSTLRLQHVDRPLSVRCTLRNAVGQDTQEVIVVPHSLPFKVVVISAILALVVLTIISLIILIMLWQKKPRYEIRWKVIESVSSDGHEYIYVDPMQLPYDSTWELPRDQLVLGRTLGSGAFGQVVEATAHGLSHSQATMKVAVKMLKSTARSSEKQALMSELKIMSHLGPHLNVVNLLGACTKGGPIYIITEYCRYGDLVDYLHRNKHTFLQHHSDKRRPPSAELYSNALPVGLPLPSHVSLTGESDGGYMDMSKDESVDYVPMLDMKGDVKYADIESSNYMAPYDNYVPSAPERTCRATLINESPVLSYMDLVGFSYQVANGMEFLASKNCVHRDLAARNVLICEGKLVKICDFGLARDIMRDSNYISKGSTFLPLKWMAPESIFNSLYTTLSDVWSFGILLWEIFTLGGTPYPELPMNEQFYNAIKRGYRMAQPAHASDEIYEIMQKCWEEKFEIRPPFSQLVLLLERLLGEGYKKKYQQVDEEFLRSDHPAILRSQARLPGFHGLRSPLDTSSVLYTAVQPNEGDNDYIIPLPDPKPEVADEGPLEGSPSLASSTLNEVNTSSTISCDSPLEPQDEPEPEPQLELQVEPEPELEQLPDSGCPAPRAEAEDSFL

[4] = molecular target: T1, Ephrin type-B receptor 4 (Homo sapiens) (UniProt P54760); assay: Induction of EphB4 degradation in human U87 cells at 10 uM incubated for 48 hrs in presence of 4-azido-N-(2-(2,6-dioxopiperidin-3-yl)-1,3-dioxoisoindolin-4-yl)butanamide by Western blot analysis; assay type: cell-based
T1 sequence (whole entry): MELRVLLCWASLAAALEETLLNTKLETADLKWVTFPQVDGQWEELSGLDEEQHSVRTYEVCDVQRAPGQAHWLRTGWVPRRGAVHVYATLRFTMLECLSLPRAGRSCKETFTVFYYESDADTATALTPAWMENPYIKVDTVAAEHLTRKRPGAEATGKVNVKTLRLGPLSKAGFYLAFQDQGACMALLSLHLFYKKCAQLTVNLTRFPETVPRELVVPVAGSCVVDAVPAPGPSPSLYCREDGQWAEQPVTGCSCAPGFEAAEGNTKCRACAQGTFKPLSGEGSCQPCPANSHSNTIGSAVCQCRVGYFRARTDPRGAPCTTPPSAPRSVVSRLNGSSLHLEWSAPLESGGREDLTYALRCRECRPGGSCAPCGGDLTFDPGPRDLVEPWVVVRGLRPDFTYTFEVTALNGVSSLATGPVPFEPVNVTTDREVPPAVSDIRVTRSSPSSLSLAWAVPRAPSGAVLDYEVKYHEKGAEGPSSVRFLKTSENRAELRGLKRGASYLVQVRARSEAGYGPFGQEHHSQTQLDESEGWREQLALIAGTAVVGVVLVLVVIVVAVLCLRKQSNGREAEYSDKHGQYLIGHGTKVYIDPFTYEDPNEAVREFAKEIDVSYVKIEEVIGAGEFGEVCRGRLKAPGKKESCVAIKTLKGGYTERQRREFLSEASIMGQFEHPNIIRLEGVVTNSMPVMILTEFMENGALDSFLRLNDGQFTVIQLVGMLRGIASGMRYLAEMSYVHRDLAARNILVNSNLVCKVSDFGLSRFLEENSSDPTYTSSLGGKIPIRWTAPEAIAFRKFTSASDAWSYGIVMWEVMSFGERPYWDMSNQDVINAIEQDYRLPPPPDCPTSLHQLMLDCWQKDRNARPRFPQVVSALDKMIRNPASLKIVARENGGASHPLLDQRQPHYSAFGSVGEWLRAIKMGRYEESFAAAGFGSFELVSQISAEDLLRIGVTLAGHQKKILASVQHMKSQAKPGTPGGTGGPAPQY

[5] = molecular target: T1, Ephrin type-B receptor 4 (Homo sapiens); assay: Induction of EphB4 degradation in human U87 cells at 2 uM incubated for 48 hrs in presence of (2S,4R)-1-((S)-2-(5-azidopentanamido)-3,3-dimethylbutanoyl)-4-hydroxy-N-(4-(4-methylthiazol-5-yl)benzyl)pyrrolidine-2-carboxamide by Western blot analysis; assay type: cell-based
[6] = system: U-87 MG; assay: (§1) Induction of apoptosis in human U87 cells assessed as late apoptotic cells at 0.1 uM incubated for 48 hrs in presence of (2S,4R)-1-((S)-2-(5-azidopentanamido)-3,3-dimethylbutanoyl)-4-hydroxy-N-(4-(4-methylthiazol-5-yl)benzyl)pyrrolidine-2-carboxamide by Annexin V-FLTC/PI staining based flow cytometry (reference value: 3.71 %); assay type: functional, U-87MG ATCC
[7] = system: U-87 MG; assay: as §1, with “1” for “0.1”; assay type: functional, U-87MG ATCC
[8] = system: U-87 MG; assay: as §1, with “early” for “late”, “10” for “0.1”, “8.95” for “3.71”; assay type: functional, U-87MG ATCC
[9] = system: U-87 MG; assay: Induction of cell cycle arrest at S phase in human U87 cells incubated for 48 hrs in presence of (2S,4R)-1-((S)-2-(5-azidopentanamido)-3,3-dimethylbutanoyl)-4-hydroxy-N-(4-(4-methylthiazol-5-yl)benzyl)pyrrolidine-2-carboxamide by PI staining based flow cytometry; assay type: functional; conditions: U-87MG ATCC, dose 0.1-1 µM
[10] = molecular target: Serine/threonine-protein kinase B-raf (Homo sapiens) (UniProt P15056); assay: Induction of BRAF degradation in human U87 cells at 10 uM incubated for 48 hrs by Western blot analysis; assay type: cell-based
Sequence of Serine/threonine-protein kinase B-raf (Homo sapiens) (P15056 whole entry): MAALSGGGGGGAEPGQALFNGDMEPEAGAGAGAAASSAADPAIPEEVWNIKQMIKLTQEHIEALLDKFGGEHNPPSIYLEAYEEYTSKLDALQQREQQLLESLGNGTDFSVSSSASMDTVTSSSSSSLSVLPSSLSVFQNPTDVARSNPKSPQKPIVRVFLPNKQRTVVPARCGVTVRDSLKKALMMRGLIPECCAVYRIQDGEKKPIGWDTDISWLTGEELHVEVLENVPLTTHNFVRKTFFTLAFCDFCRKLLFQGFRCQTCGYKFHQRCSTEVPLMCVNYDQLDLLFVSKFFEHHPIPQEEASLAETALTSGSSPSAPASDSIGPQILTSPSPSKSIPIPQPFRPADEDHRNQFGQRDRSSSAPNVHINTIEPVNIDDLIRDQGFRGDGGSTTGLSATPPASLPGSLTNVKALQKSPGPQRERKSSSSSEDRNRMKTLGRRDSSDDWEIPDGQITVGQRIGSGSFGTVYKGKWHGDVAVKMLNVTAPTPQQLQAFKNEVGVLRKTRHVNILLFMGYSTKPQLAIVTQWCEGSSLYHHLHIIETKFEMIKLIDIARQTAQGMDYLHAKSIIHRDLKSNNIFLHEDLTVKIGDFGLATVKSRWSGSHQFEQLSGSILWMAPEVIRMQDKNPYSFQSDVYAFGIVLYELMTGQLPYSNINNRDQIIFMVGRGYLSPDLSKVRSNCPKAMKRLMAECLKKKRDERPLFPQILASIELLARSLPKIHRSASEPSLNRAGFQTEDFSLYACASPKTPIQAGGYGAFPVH

[11] = system: U-87 MG; assay: Induction of apoptosis in human U87 cells assessed as viable cells at 0.1 uM incubated for 48 hrs in presence of 4-(4-(3-(4-chloro-3-(trifluoromethyl)phenyl)ureido)phenoxy)-N-(prop-2-yn-1-yl)picolinamide by Annexin V-FLTC/PI staining based flow cytometry (reference value: 86.74 %); assay type: functional, U-87MG ATCC; conditions: read-out: Activity
[12] = system: U-87 MG; assay: Induction of apoptosis in human U87 cells assessed as early apoptotic cells at 1 uM incubated for 48 hrs in presence of 4-(4-(3-(4-chloro-3-(trifluoromethyl)phenyl)ureido)phenoxy)-N-(prop-2-yn-1-yl)picolinamide by Annexin V-FLTC/PI staining based flow cytometry (reference value: 8.95 %); assay type: functional, U-87MG ATCC
[13] = system: U-87 MG; assay: Induction of apoptosis in human U87 cells assessed as late apoptotic cells at 10 uM incubated for 48 hrs in presence of 4-(4-(3-(4-chloro-3-(trifluoromethyl)phenyl)ureido)phenoxy)-N-(prop-2-yn-1-yl)picolinamide by Annexin V-FLTC/PI staining based flow cytometry (reference value: 3.71 %); assay type: functional, U-87MG ATCC
[14] = system: U-87 MG; assay: Induction of apoptosis in human U87 cells assessed as viable cells at 20 uM incubated for 48 hrs in presence of 4-(4-(3-(4-chloro-3-(trifluoromethyl)phenyl)ureido)phenoxy)-N-(prop-2-yn-1-yl)picolinamide by Annexin V-FLTC/PI staining based flow cytometry (reference value: 86.74 %); assay type: functional, U-87MG ATCC; conditions: read-out: Activity
[15] = system: U-87 MG; assay: Induction of apoptosis in human U87 cells assessed as late apoptotic cells at 20 uM incubated for 48 hrs in presence of 4-(4-(3-(4-chloro-3-(trifluoromethyl)phenyl)ureido)phenoxy)-N-(prop-2-yn-1-yl)picolinamide by Annexin V-FLTC/PI staining based flow cytometry (reference value: 3.71 %); assay type: functional, U-87MG ATCC

IC50 [1] [nM]	Activity [3]	Activity [4]	Activity [5]	Activity [10]	Compound	Activity [2]	Activity [6] [%]	Activity [7] [%]	Activity [8] [%]	Activity [9]	viability at 0.1 µM [11] [%]	Activity [12] [%]	Activity [13] [%]	viability at 20 µM [14] [%]	Activity [15] [%]
1160	inactive	Active	Active		C#CCNC(=O)c1cc(Oc2ccc(NC(=O)Nc3ccc(Cl)c(C(F)(F)F)c3)cc2)ccn1	Non-Toxic	3.35	5.43	0.08	Dose-Dependent Effect					
				Active	[N-]=[N+]=NCCCC(=O)Nc1cccc2c1C(=O)N(C1CCC(=O)NC1=O)C2=O (stereo not given)						85.3	11.69	72.58	9.88	79.04
